{"source": "patent US20130095059A1", "about": "“INHALED NO DONOR KMUPS DERIVATIVE PREVENTING ALLERGIC PULMONARY VASCULAR AND BRONCHIAL INFLAMMATION VIA SUPPRESSED CYTOKINES, INOS AND INFLAMMATORY CELL COUNTS IN ASTHMA MODEL” (priority 2007, published 2013)", "key": {"5-HT": {"tested_on": "5-HT", "test": "Plasma 5-HT levels in MCT-treated rats (Serotonin EIA)", "type": "in vivo, Wistar rats", "details": "MCT-PAH rats, non-treated MCT-PAH 4.2±0.7", "protocol": "(§1) The experiments were performed in adult male Wistar rats (300 to 350 g) in accordance with institutional guidelines after approval by the ethical review committee. PAH development and pulmonary expression of 5-HTT were examined in rats after 60 mg/kg single injection (i.p.) of monocrotaline (MCT). To assess the potential preventive effect of KMUP-1 on MCT-induced PAH and associated proliferation, we assigned rats at random to 2 groups of 8 animals which received KMUP-1 at 5 mg/kg/day p.o or 1 mg/kg/day i.p. All treatments were given once a day for 3 weeks after a single MCT injection (60 mg/kg i.p.) (Abe et al., 2004). On day 21, rats were anesthetized and pulmonary artery blood pressure (MPAP) was recorded as previously described. Lung tissues were dissected for Western blotting and immunohistochemistry.\nAfter MCT-treatment, rats acquired severe PAH and received sodium pentobarbital (40 mg/kg, i.p.) at day 21 for surgical anesthesia and measurement of MPAP (Chung et al., 2010). Blood samples (1.0 mL) were obtained from the heart. Blood was transferred to plastic tubes that included EDTA and was centrifuged at 100 g for 20 min. The plasma was transferred to tubes and stored at −80° C. until analysis. Plasma 5-HT levels were determined using commercially available Serotonin EIA (IBL, Minneapolis, USA). […] Results were read from a standard curve. […]"}, "[1]": {"test": "MCT-induced chronic PAH, mean pulmonary arterial pressure", "type": "in vivo, Wistar rats", "details": "5 mg/kg/day p.o. and 1 mg/kg/day i.p. for 21 days", "protocol": "as §1"}, "sGCα1": {"tested_on": "sGCα1", "test": "Ovalbumine model, sGCα1 expression", "type": "in vivo, BALB/c mice", "details": "28-day experiment; nebulization", "protocol": "(§2) In this long-term experiment, 6-8 week old BALB/c female mice were sensitized on days 1 and 8 by intra-peritoneal injection (i.p.) of ovalbumine (10 μg) (Sigma-Aldrich, Schnelldorf, Germany) adsorbed to 2 mg aluminum hydroxide (AlumInject; Perbio, Erembodegem, Belgium). Mice were divided into three groups. In Group 1, a control group was only exposed to saline nebulization by aerosol. The other 2 groups were subjected to ovalbumine (1%) nebulization. Before each challenge with ovalbumine, mice were either exposed to saline nebulization (Group 2) or KMUP-1 nebulization (5 mM) for 30 min by aerosol (Group 3).\nThe lung tissues were homogenized, washed with PBS and incubated in lysis buffer in addition to a protease inhibitor cocktail (Sigma, St. Louis, Mo.) to obtain extracts of lung proteins. A Western blot analysis was performed as described previously (Wu B N, et al., 2006). The samples were loaded to 10% SDS-PAGE gels and were separated at 120 V for 90 min. The blots were incubated with anti-eNOS antibody diluted at a ratio of 1:500, anti-sGCα1 antibody diluted at a ratio of 1:2000, anti-PKG antibody diluted at a ratio of 1:500, anti-VCAM-1 antibody diluted at a ratio of 1:500, anti-ICAM-1 antibody diluted at a ratio of 1:500, and anti-MMP-9 antibody diluted at a ratio of 1:600 overnight at 4° C. […]"}, "NOx": {"tested_on": "NOx", "test": "Ovalbumine model, NO metabolites (NOx) in BALF", "type": "in vivo, BALB/c mice", "details": "24 hrs after last challenge; basal 65.4±8.2, ovalbumine 162.8±15.7", "protocol": "as §2\nThe remaining BALF was centrifuged (900 g, 1200 rpm, 10 min) and the supernatant frozen (−80° C.) until determination of nitrite and nitrate by the Griess reaction. BALF (100 μL) was incubated (37° C.) for 30 min with N-2-hydroxyethylpiperazine-N′-ethane sulphonic acid buffer (HEPES) (50 mM, pH 7.4), flavin adenine dinucleotide (5 μM), nicotinamide adenine dinucleotide phosphate (0.1 mM), distilled water (290 μl), and nitrate reductase (0.2 U/ml) for the conversion of nitrate into nitrite. […] The samples were then incubated (25° C., 10 min) with Griess reagent [N-(1-naphthyl)-ethylenediamine: 0.2% (w/v), sulphanilamide: 2% (w/v), solubilized in double-distilled water: 95% and phosphoric acid: 5% (v/v)] and the absorbance measured at 540 nm. […]"}, "5-HT2B receptor": {"molecular_target": "T1, 5-HT2B receptor (Homo sapiens, UniProt P41595)", "T1 construct": "full length clones of 5-HT2A, 5-HT2B and 5-HT2C receptor were prepared from CHO-K1 cells; expressed in transfected cells; host or cells: CHO-K1", "T1 sequence (P41595 whole entry)": "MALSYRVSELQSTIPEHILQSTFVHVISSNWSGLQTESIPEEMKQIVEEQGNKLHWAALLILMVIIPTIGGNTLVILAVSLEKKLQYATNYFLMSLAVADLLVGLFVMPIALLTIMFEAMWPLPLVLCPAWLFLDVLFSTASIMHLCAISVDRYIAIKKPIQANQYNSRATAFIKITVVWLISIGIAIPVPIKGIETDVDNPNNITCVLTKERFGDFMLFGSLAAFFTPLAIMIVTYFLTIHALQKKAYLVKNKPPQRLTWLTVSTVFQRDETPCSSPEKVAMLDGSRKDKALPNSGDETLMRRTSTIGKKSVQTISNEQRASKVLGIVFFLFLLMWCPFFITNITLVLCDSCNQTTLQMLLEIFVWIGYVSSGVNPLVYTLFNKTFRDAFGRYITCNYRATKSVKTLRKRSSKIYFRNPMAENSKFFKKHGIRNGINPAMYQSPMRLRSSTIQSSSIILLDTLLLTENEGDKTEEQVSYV", "test": "Displacement of radioligand binding, 5-HT2B", "protocol": "Displacement of Radioligand Binding Assay\nAs described previously, full length clones of 5-HT2A, 5-HT2B and 5-HT2C receptor were prepared from CHO-K1 cells. […] IC50 represents the concentration of competing ligand which displaces 50% of the specific binding of the radioligand. Ki values for competition curves were calculated using the Cheng-Prusoff equation (Cheng, 2001)."}, "eNOS": {"tested_on": "eNOS", "test": "Ovalbumine model, eNOS immunostaining in lung sections", "set-up": "species or system BALB/c mice", "details": "mouse, in vivo", "protocol": "as §2\nImmunohistochemical analysis of eNOS enhancement by KMUP-1 was performed as follows. The lungs were perfused with saline followed by 10% formalin and then placed in 10% formalin for paraffin embedding. The lung tissues were cut into […] sections onto slides, dewaxed in 100% xylene, and then re-hydrated in graded alcohol solutions. Throughout the procedures, slides were washed as appropriate in PBS. Antigen retrieval was performed by microwave treatment for eNOS immunostaining. Sections were treated with 3% H2O2 (10 min) to inhibit endogenous peroxidases and incubated with normal serum (60 min) to reduce nonspecific binding of secondary antibodies. Sections were then incubated at 4° C. overnight with eNOS antibodies. […]"}}}
{"smiles": "Cn1c(=O)c2c(ncn2CCN2CCN(c3ccccc3Cl)CC2)n(C)c1=O", "note": "[KMUP-1, 7-[2-[4-(2-chlorophenyl)piperazinyl]ethyl]-1,3-dimethylxanthine]", "values": [{"measurement": "plasma concentration of 5-HT", "setting": "5-HT; 1 mg/kg i.p.", "value": "3.2 ± 0.6", "unit": "ng/mL"}, {"measurement": "plasma concentration of 5-HT", "setting": "5-HT; 5 mg/kg p.o.", "value": "3.2 ± 0.5", "unit": "ng/mL"}, {"measurement": "MCT-induced increases in mean pulmonary arterial pressure (MPAP)", "setting": "[1]", "value": "significantly reduced"}, {"measurement": "decreased sGCα1 expression by ovalbumine sensitization", "setting": "sGCα1", "value": "significantly reduced"}, {"measurement": "levels of NOx (nitrate+nitrite) in BALF", "setting": "NOx", "value": "86.3 ± 17.3", "unit": "µM"}, {"measurement": "ligand specificity of 5-HT2B receptor versus 5-HT2A and 5-HT2C receptors", "setting": "5-HT2B receptor", "value": "more selective"}, {"measurement": "IC50", "setting": "5-HT2B receptor; [^3H]-LSD, human recombinant CHO-K1 cells", "value": 40, "unit": "nM"}, {"measurement": "Ki", "setting": "5-HT2B receptor; [^3H]-LSD, human recombinant CHO-K1 cells, Cheng-Prusoff", "value": 25.4, "unit": "nM"}, {"measurement": "ovalbumine-decreased vascular eNOS-immunostaining in lung sections", "setting": "eNOS", "value": "prevented this decrease"}]}
